US20230092890A1, “1, 3, 4-Oxadiazole derivative compounds as histone deacetylase 6 inhibitor, and the pharmaceutical composition comprising the same” (Chong Kun Dang Pharmaceutical Corp., priority 2019, published 2023)
pIC50: −log10 of the molar value.

Assays:
[1] = biological target: T1, HDAC6 human recombinant (Homo sapiens, UniProt Q9UBN7); experiment: HDAC enzyme activity inhibition (in vitro), HDAC6 assay; type: biochemical; settings: samples at 0.1, 1, 10, 100 and 1000 nM; 37° C. 60 minutes; fluorescence Ex 390, Em 460; read-out: HDAC6 IC50
T1 construct: purchased Calbiochem 382180
T1 sequence (Q9UBN7 1-1215): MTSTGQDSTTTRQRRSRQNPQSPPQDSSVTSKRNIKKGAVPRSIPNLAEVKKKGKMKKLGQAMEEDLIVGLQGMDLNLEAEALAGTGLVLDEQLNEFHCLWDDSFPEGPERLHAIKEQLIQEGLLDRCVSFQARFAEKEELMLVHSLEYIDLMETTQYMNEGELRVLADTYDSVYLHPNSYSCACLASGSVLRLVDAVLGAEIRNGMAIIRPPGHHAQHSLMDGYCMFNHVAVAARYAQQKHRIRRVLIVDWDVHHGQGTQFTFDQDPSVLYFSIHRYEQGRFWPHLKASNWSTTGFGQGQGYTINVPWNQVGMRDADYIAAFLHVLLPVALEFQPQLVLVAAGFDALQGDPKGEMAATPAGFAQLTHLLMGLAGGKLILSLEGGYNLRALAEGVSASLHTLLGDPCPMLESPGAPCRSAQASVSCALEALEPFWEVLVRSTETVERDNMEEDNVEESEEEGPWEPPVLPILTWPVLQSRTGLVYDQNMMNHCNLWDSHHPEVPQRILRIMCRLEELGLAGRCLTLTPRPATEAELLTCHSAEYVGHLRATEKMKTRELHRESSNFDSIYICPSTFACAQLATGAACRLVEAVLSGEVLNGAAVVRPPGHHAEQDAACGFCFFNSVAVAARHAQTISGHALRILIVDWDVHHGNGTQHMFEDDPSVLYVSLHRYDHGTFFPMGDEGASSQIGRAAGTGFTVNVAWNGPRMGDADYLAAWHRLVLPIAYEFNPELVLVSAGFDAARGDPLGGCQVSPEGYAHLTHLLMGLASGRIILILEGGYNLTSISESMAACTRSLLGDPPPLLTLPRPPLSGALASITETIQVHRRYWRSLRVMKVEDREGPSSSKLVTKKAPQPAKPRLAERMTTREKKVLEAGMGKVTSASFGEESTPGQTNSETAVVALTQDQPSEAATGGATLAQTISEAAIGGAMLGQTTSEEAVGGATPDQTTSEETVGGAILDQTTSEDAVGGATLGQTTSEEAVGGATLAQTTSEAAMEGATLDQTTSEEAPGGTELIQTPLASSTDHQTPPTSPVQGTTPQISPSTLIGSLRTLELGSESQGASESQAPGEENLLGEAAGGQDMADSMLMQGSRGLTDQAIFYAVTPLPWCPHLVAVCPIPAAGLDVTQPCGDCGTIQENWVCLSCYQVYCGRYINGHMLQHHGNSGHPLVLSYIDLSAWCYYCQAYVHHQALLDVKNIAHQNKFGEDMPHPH
How it was run: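 Fluorescence (Ex 390, Em 460) read after a 37° C, 60 min enzyme reaction and a further 30 min developer step at 37° C. Uses recombinant human HDAC6; HDAC1 arm dosed at 100, 1000, 10000 nM.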

[2] = biological target: T2, HDAC1 (Homo sapiens, UniProt Q13547); experiment: HDAC enzyme activity inhibition (in vitro), HDAC1 Fluorimetric Drug Discovery Assay Kit; type: biochemical; settings: samples at 100, 1000 and 10000 nM; 37° C. 60 minutes; fluorescence Ex 390, Em 460; read-out: HDAC1 IC50
T2 construct: purchased Enzolifesciences BML-AK511
T2 sequence (Q13547 whole entry): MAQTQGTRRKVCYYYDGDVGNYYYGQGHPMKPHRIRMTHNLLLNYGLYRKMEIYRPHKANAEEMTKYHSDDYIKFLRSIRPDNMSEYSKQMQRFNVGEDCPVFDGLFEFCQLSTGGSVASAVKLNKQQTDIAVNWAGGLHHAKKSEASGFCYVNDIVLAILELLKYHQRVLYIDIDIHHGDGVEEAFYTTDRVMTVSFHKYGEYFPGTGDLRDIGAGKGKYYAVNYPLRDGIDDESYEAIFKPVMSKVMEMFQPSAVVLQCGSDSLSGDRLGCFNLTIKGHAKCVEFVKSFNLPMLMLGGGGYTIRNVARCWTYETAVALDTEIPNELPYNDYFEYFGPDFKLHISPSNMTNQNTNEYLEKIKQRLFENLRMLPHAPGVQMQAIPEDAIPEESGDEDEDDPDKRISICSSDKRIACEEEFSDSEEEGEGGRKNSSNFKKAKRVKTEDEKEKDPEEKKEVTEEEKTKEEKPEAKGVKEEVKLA
How it was run: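 Fluorescence read-out (Ex 390/Em 460) after developer step, 30 min at 37° C, following a 60-min 37° C enzyme reaction. Test concentrations: HDAC1 kit, 100–10000 nM (three levels); recombinant human HDAC6, 0.1–1000 nM (five levels).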

Structure (SMILES)	pIC50 [1]	pIC50 [2]
O=c1n(Cc2ccc(-c3nnc(C(F)F)o3)cn2)c2ccccc2n1C1COC1 [Compound 11, 1-((5-(5-(difluoromethyl)-1,3,4-oxadiazole-2-yl)pyridine-2-yl)methyl)-3-(oxetan-3-yl)-1,3-dihydro-2H-benzo[d]imidazole-2-one]	6.62	< 5.00
Cn1c(=O)n(Cc2ccc(-c3nnc(C(F)F)o3)cn2)c2cc(F)c(N3CCN(CC(F)(F)C(F)F)CC3)cc21 [Compound 262, 1-((5-(5-(difluoromethyl)-1,3,4-oxadiazole-2-yl)pyridine-2-yl)methyl)-6-fluoro-3-methy 1-5-(4-(2,2,3,3-tetrafluoropropyl)piperazine-1-yl)-1,3-dihydro-2H-benzo[d]imidazole-2-one]	6.97	< 5.00
CC(C)(C)OC(=O)N1CCC(n2cc(-c3cc4oc(=O)n(Cc5ccc(-c6nnc(C(F)F)o6)cn5)c4cc3F)cn2)CC1 [Compound 358, tert-butyl 4-(4-(3-((5-(5-(difluoromethyl)-1,3,4-oxadiazole-2-yl)pyridine-2-yl)methyl)-5-fluoro-2-oxo-2,3-dihydrobenzo[d]oxazole-6-yl)-1H-pyrazole-1-yl)piperidine-1-carboxylate]	6.89	< 5.00
O=c1n(Cc2ccc(-c3nnc(C(F)F)o3)cn2)c2ccc(F)cc2n1C1CCN(C2CCC2)CC1 [Compound 45, 3-(1-cyclobutylpiperidine-4-yl)-1-((5-(5-(difluoromethyl)-1,3,4-oxadiazole-2-yl)pyridine-2-yl)methyl)-5-fluoro-1,3-dihydro-2H-benzo[d]imidazole-2-one]	6.92	< 5.00
O=c1sc2cc(-c3cnn(C4CCN(C5COC5)CC4)c3)ccc2n1Cc1ccc(-c2nnc(C(F)F)o2)cn1 [Compound 355, 3-((5-(5-(difluoromethyl)-1,3,4-oxadiazole-2-yl)pyridine-2-yl)methyl)-6-(1-(1-(oxetan-3-yl)piperidine-4-yl)-1H-pyrazole-4-yl)benzo[d]thiazole-2(3H)-on]	7.64	< 5.00
Cn1c(=O)n(Cc2ccc(-c3nnc(C(F)F)o3)cn2)c2cc(F)c(-c3cccc4[nH]ccc34)cc21 [Compound 224, 1-((5-(5-(difluoromethyl)-1,3,4-oxadiazole-2-yl)pyridine-2-yl)methyl)-6-fluoro-5-(1H-indole-4-yl)-3-methyl-1,3-dihydro-2H-benzo[d]imidazole-2-one]	8.10	< 5.00
CN1CCC(n2c(=O)n(Cc3ccc(-c4nnc(C(F)F)o4)cn3)c3cc(F)c(-c4ccnn4C)cc32)CC1 [Compound 249, 1-((5-(5-(difluoromethyl)-1,3,4-oxadiazole-2-yl)pyridine-2-yl)methyl)-6-fluoro-5-(1-methyl-1H-pyrazole-5-yl)-3-(1-methylpiperidine-4-yl)-1,3-dihydro-2H-benzo[d]imidazole-2-one]	7.74	< 5.00
Cn1c(=O)n(Cc2ccc(-c3nnc(C(F)F)o3)cn2)c2ccc(-c3cccc4[nH]ccc34)cc21 [Compound 212, 1-((5-(5-(difluoromethyl)-1,3,4-oxadiazole-2-yl)pyridine-2-yl)methyl)-5-(1H-indole-4-yl)-3-methyl-1,3-dihydro-2H-benzo[d]imidazole-2-one]	8.00	< 5.00
Cn1c(=O)n(Cc2ccc(-c3nnc(C(F)F)o3)cn2)c2cc(F)c(N3CCN(Cc4cccc5[nH]ccc45)CC3)cc21 [Compound 284, 5-(4-((1H-indole-4-yl)methyl)piperazine-1-yl)-1-((5-(5-(difluoromethyl)-1,3,4-oxadiazole-2-yl)pyridine-2-yl)methyl)-6-fluoro-3-methyl-1,3-dihydro-2H-benzo[d]imidazole-2-one]	7.23	< 5.00
Cc1noc(C)c1-c1ccc2c(c1)n(C1CCN(C)CC1)c(=O)n2Cc1ccc(-c2nnc(C(F)F)o2)cn1 [Compound 210, 1-((5-(5-(difluoromethyl)-1,3,4-oxadiazole-2-yl)pyridine-2-yl)methyl)-5-(3,5-dimethylisoxazole-4-yl)-3-(1-methylpiperidine-4-yl)-1,3-dihydro-2H-benzo[d]imidazole-2-one]	7.42	< 5.00
O=C(c1ccncc1)N1CCC(n2c(=O)n(Cc3ccc(-c4nnc(C(F)F)o4)cn3)c3cc(F)ccc32)CC1 [Compound 63, 3-((5-(5-(difluoromethyl)-1,3,4-oxadiazole-2-yl)pyridine-2-yl)methyl)-5-fluoro-1-(1-isonicotinoylpiperidine-4-yl)-1,3-dihydro-2H-benzo[d]imidazole-2-one]	7.24	< 5.00

Further lines, results first:

pIC50 [1]	pIC50 [2]	Structure (SMILES)
7.30	< 5.00	CC(=O)N1CCC(n2c(=O)n(Cc3ccc(-c4nnc(C(F)F)o4)cc3F)c3cc(F)c(F)cc32)CC1 [Compound 174, 1-(1-acetylpiperidine-4-yl)-3-(4-(5-(difluoromethyl)-1,3,4-oxadiazole-2-yl)-2-fluorobenzyl)-5,6-difluoro-1,3-dihydro-2H-benzo[d]imidazole-2-one]
6.85	< 5.00	CS(=O)(=O)N1CCC(n2c(=O)n(Cc3ccc(-c4nnc(C(F)F)o4)cc3F)c3ncccc32)CC1 [Compound 204, 3-(4-(5-(difluoromethyl)-1,3,4-oxadiazole-2-yl)-2-fluorobenzyl)-1-(1-(methylsulfonyl)piperidine-4-yl)-1,3-dihydro-2H-imidazo[4,5-b]pyridine-2-one]
6.68	< 5.00	CCN1CCC(n2c(=O)n(Cc3ccc(-c4nnc(C(F)F)o4)cc3F)c3ccccc32)CC1 [Compound 14, 1-(4-(5-(difluoromethyl)-1,3,4-oxadiazole-2-yl)-2-fluorobenzyl)-3-(1-ethylpiperidine-4-yl)-1,3-dihydro-2H-benzo[d]imidazole-2-one]
7.36	< 5.00	CN1CCC(n2c(=O)n(Cc3ccc(-c4nnc(C(F)F)o4)cc3F)c3ccc(Cl)cc32)CC1 [Compound 101, 5-chloro-1-(4-(5-(difluoromethyl)-1,3,4-oxadiazole-2-yl)-2-fluorobenzyl)-3-(1-methylpiperidine-4-yl)-1,3-dihydro-2H-benzo[d]imidazole-2-one]
7.10	< 5.00	CS(=O)(=O)N1CCC(n2c(=O)n(Cc3ccc(-c4nnc(C(F)F)o4)cc3)c3cc(F)ccc32)CC1 [Compound 192, 3-(4-(5-(difluoromethyl)-1,3,4-oxadiazole-2-yl)benzyl)-5-fluoro-1-(1-(methylsulfonyl)piperidine-4-yl)-1,3-dihydro-2H-benzo[d]imidazole-2-one]
7.40	< 5.00	CC(=O)N1CCC(n2c(=O)n(Cc3ccc(-c4nnc(C(F)F)o4)cn3)c3c(F)cccc32)CC1 [Compound 171, 1-(1-acetylpiperidine-4-yl)-3-((5-(5-(difluoromethyl)-1,3,4-oxadiazole-2-yl)pyridine-2-yl)methyl)-4-fluoro-1,3-dihydro-2H-benzo[d]imidazole-2-one]
7.18	< 5.00	CN1CCC(n2c(=O)n(Cc3ccc(-c4nnc(C(F)F)o4)cc3)c3cc(F)ccc32)CC1 [Compound 79, 3-(4-(5-(difluoromethyl)-1,3,4-oxadiazole-2-yl)benzyl)-5-fluoro-1-(1-methylpiperidine-4-yl)-1,3-dihydro-2H-benzo[d]imidazole-2-one]
6.81	< 5.00	CCN1CCC(n2c(=O)n(Cc3ccc(-c4nnc(C(F)F)o4)cn3)c3ccc(F)cc32)CC1 [Compound 40, 1-((5-(5-(difluoromethyl)-1,3,4-oxadiazole-2-yl)pyridine-2-yl)methyl)-3-(1-ethylpiperidine-4-yl)-5-fluoro-1,3-dihydro-2H-benzo[d]imidazole-2-one]
